Assay results published in ChEMBL document CHEMBL1154088, “Synthesis, biological evaluation and docking studies of novel benzopyranone congeners for their expected activity as anti-inflammatory, analgesic and antipyretic agents” (Bioorg Med Chem, 2009).

What was measured:
[1] = system: Mus musculus; assay: Analgesic activity in mouse assessed as protection against acetic acid-induced writhing at one-tenth of LD50 administered subcutaneously 30 mins before acetic acid challenge measured after 4 hrs relative to control; assay type: functional
[2] = system: Rattus norvegicus; assay: Antipyretic activity against yeast-induced hyperpyrexia in hyperthermic rat assessed as rectal temperature at one-tenth of LD50 administered subcutaneously 18 hrs after yeast challenge measured after 1 hr (Rvb=39.24 +/- 0.22 degC); assay type: functional
[3] = system: Rattus norvegicus; assay: Antipyretic activity against yeast-induced hyperpyrexia in hyperthermic rat assessed as rectal temperature at one-tenth of LD50 administered subcutaneously 18 hrs after yeast challenge measured after 2 hrs (Rvb=39.11 +/- 0.26 degC); assay type: functional
[4] = system: Rattus norvegicus; assay: Antipyretic activity against yeast-induced hyperpyrexia in hyperthermic rat assessed as rectal temperature at one-tenth of LD50 administered subcutaneously 18 hrs after yeast challenge measured after 3 hrs (Rvb=39.20 +/- 0.24 degC); assay type: functional
[5] = system: Rattus norvegicus; assay: Antipyretic activity against yeast-induced hyperpyrexia in hyperthermic rat assessed as rectal temperature at one-tenth of LD50 administered subcutaneously 18 hrs after yeast challenge measured after 4 hrs (Rvb=39.17 +/- 0.20 degC); assay type: functional
[6] = Toxicity in sc dosed albino mouse up to 24 hrs; assay type: organism-based; conditions: in vivo
[7] = system: Rattus norvegicus; assay: Antiinflammatory activity against carrageenan-induced foot paw edema in rat assessed as reduction in paw size at one-tenth of LD50 administered subcutaneously 30 mins before carrageenan challenge measured after 3 hrs relative to control; assay type: functional; parameters: scale not given: the % may be the effect or the level left
[8] = system: Mus musculus; assay: Analgesic activity in mouse assessed as protection against acetic acid-induced writhing at one-tenth of LD50 administered subcutaneously 30 mins before acetic acid challenge measured after 1 hr relative to control; assay type: functional
[9] = system: Mus musculus; assay: Analgesic activity in mouse assessed as protection against acetic acid-induced writhing at one-tenth of LD50 administered subcutaneously 30 mins before acetic acid challenge measured after 2 hrs relative to control; assay type: functional
[10] = system: Mus musculus; assay: Analgesic activity in mouse assessed as protection against acetic acid-induced writhing at one-tenth of LD50 administered subcutaneously 30 mins before acetic acid challenge measured after 3 hrs relative to control; assay type: functional

Structure (SMILES) | Activity [1] | Activity [2] | Activity [3] | Activity [4] | Activity [5] | LD50 at 24 h [6] | Activity [7] | Activity [8] | Activity [9] | Activity [10]
CN(C)c1ccc(/C=C/C(=O)c2c(O)ccc3c(-c4ccccc4)cc(=O)oc23)cc1 | 9.41% | 38.31 °C | 38.21 °C | 38.51 °C | 38.86 °C | 390 mg/kg | 17.4% | 37.41% | 36.94% | 22.82%
COc1ccc(-c2cc(-c3c(O)ccc4c(-c5ccccc5)cc(=O)oc34)[nH]c(=O)c2C#N)cc1 | 1.18% | 38.81 °C | 38.71 °C | 38.64 °C | 38.91 °C | 330 mg/kg | 5.78% | 0.94% | 2.84% | 9.47%
CC(=O)c1c(O)ccc2c(-c3ccccc3)cc(=O)oc12 | 2.81% | 38.91 °C | 38.91 °C | 39 °C | 39.06 °C | 290 mg/kg | 20.27% | 0% | 2.34% | 4.92%
N#Cc1c(-c2ccc(Cl)cc2)cc(-c2c(O)ccc3c(-c4ccccc4)cc(=O)oc23)[nH]c1=O | 1.66% | 38.91 °C | 38.84 °C | 38.81 °C | 38.91 °C | 310 mg/kg | 16.35% | 0% | 1.18% | 0.71%
COc1ccc(C2CC(c3c(O)ccc4c(-c5ccccc5)cc(=O)oc34)=NN2)cc1 (stereo not given) | 0.71% | 38.81 °C | 38.91 °C | 38.91 °C | 39.15 °C | 330 mg/kg | 8.7% | 10% | 10.71% | 5.23%
O=c1cc(-c2ccccc2)c2ccc(O)c(C3=NN(c4ccc([N+](=O)[O-])cc4[N+](=O)[O-])C(c4ccc(Cl)cc4)C3)c2o1 (stereo not given) | 1.4% | 38.81 °C | 38.91 °C | 38.91 °C | 38.94 °C | 390 mg/kg | 11.27% | 0.93% | 1.4% | 0.93%
O=c1cc(-c2ccccc2)c2ccc(O)c(C3=NN(c4ccccc4)C(c4ccc(Cl)cc4)C3)c2o1 (stereo not given) | 3.11% | 38.91 °C | 38.81 °C | 38.91 °C | 39.05 °C | 330 mg/kg | 18.85% | 0.71% | 2.63% | 3.35%
CN(C)c1ccc(-c2cc(-c3c(O)ccc4c(-c5ccccc5)cc(=O)oc34)[nH]c(=N)c2C#N)cc1 | 3.76% | 38.38 °C | 38.17 °C | 38.39 °C | 38.89 °C | 310 mg/kg | 18.85% | 9.41% | 12% | 11.52%
CN(C)c1ccc(C2CC(c3c(O)ccc4c(-c5ccccc5)cc(=O)oc34)=NN2c2ccccc2)cc1 (stereo not given) | 6.82% | 38.4 °C | 38.01 °C | 38.43 °C | 38.88 °C | 330 mg/kg | 5.78% | 39.76% | 40.23% | 20.47%
CN(C)c1ccc(-c2cc(-c3c(O)ccc4c(-c5ccccc5)cc(=O)oc34)[nH]c(=O)c2C#N)cc1 | 2.35% | 38.91 °C | 38.91 °C | 38.9 °C | 39.11 °C | 390 mg/kg | 7.24% | 9.66% | 7.54% | 7.54%
COc1ccc(-c2cc(-c3c(O)ccc4c(-c5ccccc5)cc(=O)oc34)[nH]c(=N)c2C#N)cc1 | 1.88% | 38.9 °C | 38.81 °C | 38.81 °C | 38.91 °C | 330 mg/kg | 15.94% | 4.7% | 0.7% | 1.17%
N#Cc1c(-c2ccccc2O)cc(-c2c(O)ccc3c(-c4ccccc4)cc(=O)oc23)[nH]c1=O | 6.38% | 38.34 °C | 38.2 °C | 38.47 °C | 38.91 °C | 290 mg/kg | 4.33% | 41.84% | 30.49% | 19.14%
COc1cc(OC)c(-c2cc(-c3c(O)ccc4c(-c5ccccc5)cc(=O)oc34)[nH]c(=O)c2C#N)c(OC)c1 | 1.41% | 38.91 °C | 38.91 °C | 38.81 °C | 38.91 °C | 390 mg/kg | 5.78% | 0.47% | 0.7% | 0.7%
COc1ccc(C2CC(c3c(O)ccc4c(-c5ccccc5)cc(=O)oc34)=NN2c2ccc([N+](=O)[O-])cc2[N+](=O)[O-])cc1 (stereo not given) | 3.58% | 38.81 °C | 38.91 °C | 38.91 °C | 38.91 °C | 370 mg/kg | 11.61% | 3.58% | 4.78% | 3.58%
N#Cc1c(-c2ccc(Cl)cc2)cc(-c2c(O)ccc3c(-c4ccccc4)cc(=O)oc23)[nH]c1=N | 3.52% | 38.91 °C | 39 °C | 38.84 °C | 38.91 °C | 390 mg/kg | 4.7% | 3.28% | 2.58% | 5.39%
N#Cc1c(-c2cccnc2)cc(-c2c(O)ccc3c(-c4ccccc4)cc(=O)oc23)[nH]c1=O | 0.95% | 38.71 °C | 38.81 °C | 38.81 °C | 38.91 °C | 370 mg/kg | 7.17% | 8.8% | 8.8% | 3.57%
COc1ccc(C2CC(c3c(O)ccc4c(-c5ccccc5)cc(=O)oc34)=NN2c2ccccc2)cc1 (stereo not given) | 6.63% | 38.51 °C | 38.14 °C | 38.44 °C | 38.87 °C | 370 mg/kg | 18.85% | 41.23% | 39.09% | 18.24%
O=c1cc(-c2ccccc2)c2ccc(O)c(C3=NNC(c4ccc(Cl)cc4)C3)c2o1 (stereo not given) | 1.18% | 38.9 °C | 38.84 °C | 38.9 °C | 38.91 °C | 310 mg/kg | 17.4% | 0.71% | 1.65% | 1.65%
COc1ccc(/C=C/C(=O)c2c(O)ccc3c(-c4ccccc4)cc(=O)oc23)cc1 | 3.52% | 38.91 °C | 38.91 °C | 38.95 °C | 39.11 °C | 290 mg/kg | 12.35% | 9.41% | 9.41% | 9.41%
N#Cc1c(-c2cccnc2)cc(-c2c(O)ccc3c(-c4ccccc4)cc(=O)oc23)[nH]c1=N | 5.15% | 39.11 °C | 38.94 °C | 38.91 °C | 38.91 °C | 370 mg/kg | 16.21% | 7.49% | 7.02% | 5.15%
N#Cc1c(-c2ccccc2O)cc(-c2c(O)ccc3c(-c4ccccc4)cc(=O)oc23)[nH]c1=N | 2.58% | 39.01 °C | 38.91 °C | 38.91 °C | 38.94 °C | 310 mg/kg | 16.31% | 9.62% | 9.38% | 9.62%
C/C(=N\c1ccccc1N)c1c(O)ccc2c(-c3ccccc3)cc(=O)oc12 | 1.64% | 38.61 °C | 38.41 °C | 38.81 °C | 38.9 °C | 370 mg/kg | 8.7% | 9.85% | 12.44% | 9.62%
